Test results published in US10787443B2, “RAF-degrading conjugate compounds” (ZAMBONI CHEM SOLUTIONS INC., priority 2017, dated 2020).
“Also recorded” adds a separate entry of the source.

target: T1, CRAF (CRAF fusion protein with a fluorescent protein) in Calu-6 cells (Homo sapiens, UniProt P04049); test: Degradation assay, fluorescent CRAF fusion protein levels in Calu-6 cells (IncuCyte S3); format: cell-based; conditions: 1.67 μM; fluorescence/confluence; FIG. 13, FIG. 14
T1 construct: fluorescent protein (green); expressed in transfected cells; host or cells: Calu-6
T1 sequence (P04049 whole entry, the tested form may be a part): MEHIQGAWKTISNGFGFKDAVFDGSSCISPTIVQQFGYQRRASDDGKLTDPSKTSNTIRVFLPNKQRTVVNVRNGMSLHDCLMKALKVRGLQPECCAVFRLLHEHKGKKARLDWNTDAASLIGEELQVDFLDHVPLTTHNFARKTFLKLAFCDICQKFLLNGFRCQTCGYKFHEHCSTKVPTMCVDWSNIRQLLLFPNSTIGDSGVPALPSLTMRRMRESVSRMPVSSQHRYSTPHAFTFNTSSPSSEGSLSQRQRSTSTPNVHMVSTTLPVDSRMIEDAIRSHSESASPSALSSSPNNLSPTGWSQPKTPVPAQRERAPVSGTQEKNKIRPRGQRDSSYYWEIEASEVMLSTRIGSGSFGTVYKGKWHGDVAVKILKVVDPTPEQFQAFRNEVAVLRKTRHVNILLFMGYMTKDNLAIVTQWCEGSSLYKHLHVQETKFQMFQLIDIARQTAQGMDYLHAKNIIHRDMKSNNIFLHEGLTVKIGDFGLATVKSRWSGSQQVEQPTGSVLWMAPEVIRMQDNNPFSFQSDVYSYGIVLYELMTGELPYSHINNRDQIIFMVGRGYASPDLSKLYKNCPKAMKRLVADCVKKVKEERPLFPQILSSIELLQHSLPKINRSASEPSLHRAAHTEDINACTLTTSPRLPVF
Protocol: Calu-6 cells were stably transfected with a CRAF fusion protein with a fluorescent protein attached to the C-terminus of CRAF in order to monitor protein levels via fluorescence. Cells were seeded into a 96-well plate and allowed to adhere overnight. The next day cells are treated with compounds at the doses indicated in the table below and analyzed over time. Data was collected by monitoring Fluorescent CRAF protein levels an IncuCyte S3 Live Cell Analysis System (Essen BioScience). […] Calu6_CRAF fusion protein cells are imaged and analyzed using an Incucyte S3 live-cell analysis system (Essen Biosciences). Fluorescence signal is due to expression of the fluorescent protein covalently fused to the C-terminus of CRAF and degradation is assessed by measuring fluorescence/confluence (˜cell number) after treatment with compounds of the present disclosure. Phase contrast images are analyzed using Incucyte S3 software. Percent confluence is calculated using a phase contrast mask to quantify the area of the image occupied by the Calu6_CRAF fusion protein cells. Fluorescent images are analyzed using Incucyte S3 software. Green Corrected Units (GCU) is calculated using a fluorescence mask to quantify the area of the image occupied by green fluorescent signal and the intensity of the signal. […] As discussed above, degradation is measured as a function of fluorescence/confluence.

| SMILES | CRAF degradation in Calu6 cells over time |
| --- | --- |
| Cc1ncc(NC(=O)c2cccc(C(F)(F)F)c2)cc1-c1cnc(OCCOCCOCCOCc2cn(CCCCCC(=O)N[C@@H](C(=O)N3C[C@@H](O)C[C@@H]3C(=O)N[C@@H](C)c3ccc(-c4scnc4C)cc3)C(C)(C)C)nn2)c(N2CCOCC2)c1 [Compound 2.010, (2R,4S)-1-((R)-3,3-dimethyl-2-(6-(4-((2-(2-(2-((2′-methyl-5-morpholino-5′-(3-(trifluoromethyl)benzamido)-[3,3′-bipyridin]-6-yl)oxy)ethoxy)ethoxy)ethoxy)methyl)-1H-1,2,3-triazol-1-yl)hexanamido)butanoyl)-4-hydroxy-N—((S)-1-(4-(4-methylthiazol-5-yl)phenyl)ethyl)pyrrolidine-2-carboxamide] | no CRAF degradation; also recorded: does not significantly reduce the relative amount of CRAF |

tested on: GST-Braf kinase domain and biotinylated E3 substrate adapter (VHL/EloB/EloC complex or CRBN318-425); test: Dimerization assay (AlphaScreen/AlphaLisa), RAF/E3 dimerization; format: binding; conditions: Table 15; relative value; compounds 4 fold serial dilutions from 20 μM

| SMILES | RAF/E3 Dimerization |
| --- | --- |
| Cc1ncc(NC(=O)c2cccc(C(F)(F)F)c2)cc1-c1cnc(OCCOCCOCCOCc2cn(CCCCCC(=O)Nc3cccc4c3C(=O)N(C3CCC(=O)NC3=O)C4=O)nn2)c(N2CCOCC2)c1 (stereo not drawn) [Compound 1.007, N-(6′-(2-(2-(2-((1-(6-((2-(2,6-dioxopiperidin-3-yl)-1,3-dioxoisoindolin-4-yl)amino)-6-oxohexyl)-1H-1,2,3-triazol-4-yl)methoxy)ethoxy)ethoxy)ethoxy)-2-methyl-5′-morpholino-[3,3′-bipyridin]-5-yl)-3-(trifluoromethyl)benzamide] | + + + |
| Cc1ncc(NC(=O)c2cccc(C(F)(F)F)c2)cc1-c1cnc(OCc2cn(CCCCCC(=O)Nc3cccc4c3C(=O)N(C3CCC(=O)NC3=O)C4=O)nn2)c(N2CCOCC2)c1 (stereo not drawn) [Compound 1.001, N-(6′-((1-(6-((2-(2,6-dioxopiperidin-3-yl)-1,3-dioxoisoindolin-4-yl)amino)-6-oxohexyl)-1H-1,2,3-triazol-4-yl)methoxy)-2-methyl-5′-morpholino-[3,3′-bipyridin]-5-yl)-3-(trifluoromethyl)benzamide] | + + |

same assay, conditions: Table 17; relative value; compounds 4 fold serial dilutions from 20 μM

| SMILES | RAF/E3 Dimerization |
| --- | --- |
| Cc1ncc(NC(=O)c2cccc(C(F)(F)F)c2)cc1-c1cnc(OCCOCCOCCOCc2cn(CCCCC(=O)N[C@@H](C(=O)N3C[C@H](O)C[C@H]3C(=O)N[C@@H](C)c3ccc(-c4scnc4C)cc3)C(C)(C)C)nn2)c(N2CCOCC2)c1 [Compound 2.009, (2S,4R)-1-((R)-3,3-dimethyl-2-(5-(4-((2-(2-(2-((2′-methyl-5-morpholino-5′-(3-(trifluoromethyl)benzamido)-[3,3′-bipyridin]-6-yl)oxy)ethoxy)ethoxy)ethoxy)methyl)-1H-1,2,3-triazol-1-yl)pentanamido)butanoyl)-4-hydroxy-N—((S)-1-(4-(4-methylthiazol-5-yl)phenyl)ethyl)pyrrolidine-2-carboxamide] | +++ (50% > RAF/E3 Dimerization ≥ 25) |
| CC(NC(=O)c1ncnc(NCc2cn(CCCCCC(=O)Nc3cccc4c3C(=O)N(C3CCC(=O)NC3=O)C4=O)nn2)c1Cl)c1ncc(C(=O)Nc2cc(C(F)(F)F)c(Cl)cn2)s1 (stereo not drawn) [Compound 2.044, N-(5-chloro-4-(trifluoromethyl)pyridin-2-yl)-2-(1-(5-chloro-6-(((1-(6-((2-(2,6-dioxopiperidin-3-yl)-1,3-dioxoisoindolin-4-yl)amino)-6-oxohexyl)-H-1,2,3-triazol-4-yl)methyl)amino)pyrimidine-4-carboxamido)ethyl)thiazole-5-carboxamide] | + (5% > RAF/E3 Dimerization) |
| Cc1ncc(NC(=O)c2cccc(C(F)(F)F)c2)cc1-c1cnc(OCCOCc2cn(CCCCCC(=O)Nc3cccc4c3C(=O)N(C3CCC(=O)NC3=O)C4=O)nn2)c(N2CCOCC2)c1 (stereo not drawn) [Compound 2.022, N-(6′-(2-((1-(6-((2-(2,6-dioxopiperidin-3-yl)-1,3-dioxoisoindolin-4-yl)amino)-6-oxohexyl)-1H-1,2,3-triazol-4-yl)methoxy)ethoxy)-2-methyl-5′-morpholino-[3,3′-bipyridin]-5-yl)-3-(trifluoromethyl)benzamide] | ++ (25% > RAF/E3 Dimerization ≥ 5%) |
| Cc1ncc(NC(=O)c2cccc(C(F)(F)F)c2)cc1-c1cnc(OCCOCCOCCOCC(=O)NCCCCCCc2cccc3c2CN(C2CCC(=O)NC2=O)C3=O)c(N2CCOCC2)c1 (stereo not drawn) [Compound 2.018, N-(6′-((18-(2-(2,6-dioxopiperidin-3-yl)-1-oxoisoindolin-4-yl)-11-oxo-3,6,9-trioxa-12-azaoctadecyl)oxy)-2-methyl-5′-morpholino-[3,3′-bipyridin]-5-yl)-3-(trifluoromethyl)benzamide] | ++++ (75% > RAF/E3 Dimerization ≥ 50%) |
| Cc1ncc(NC(=O)c2cccc(C(F)(F)F)c2)cc1-c1cnc(OCCOCCOCCOCC(=O)NCCOCCCc2cccc3c2CN(C2CCC(=O)NC2=O)C3=O)c(N2CCOCC2)c1 (stereo not drawn) [Compound 2.020, N-(6′-((18-(2-(2,6-dioxopiperidin-3-yl)-1-oxoisoindolin-4-yl)-11-oxo-3,6,9,15-tetraoxa-12-azaoctadecyl)oxy)-2-methyl-5′-morpholino-[3,3′-bipyridin]-5-yl)-3-(trifluoromethyl)-benzamide] | +++ (50% > RAF/E3 Dimerization ≥ 25) |
| CCCCCCNC(=O)Nc1cc(-c2cc3cnc(NCCCCc4cn(CCCCCC(=O)N[C@@H](C(=O)N5C[C@H](O)C[C@H]5C(=O)N[C@@H](C)c5ccc(-c6scnc6C)cc5)C(C)(C)C)nn4)nc3nc2C)c(C)cc1F [Compound 2.037, (2S,4R)-1-((R)-2-(6-(4-(4-((6-(4-fluoro-5-(3-hexylureido)-2-methylphenyl)-7-methylpyrido[2,3-d]pyrimidin-2-yl)amino)butyl)-1H-1,2,3-triazol-1-yl)hexanamido)-3,3-dimethylbutanoyl)-4-hydroxy-N—((S)-1-(4-(4-methylthiazol-5-yl)phenyl)ethyl)pyrrolidine-2-carboxamide] | ++++ (75% > RAF/E3 Dimerization ≥ 50%) |
| Cc1ncc(NC(=O)c2cccc(C(F)(F)F)c2)cc1-c1cnc(OC2CCOCC2)c(N2CCN(C(=O)CCCc3cn(CCCCCC(=O)Nc4cccc5c4C(=O)N(C4CCC(=O)NC4=O)C5=O)nn3)CC2)c1 (stereo not drawn) [Compound 2.049, N-(5′-(4-(4-(1-(6-((2-(2,6-dioxopiperidin-3-yl)-1,3-dioxoisoindolin-4-yl)amino)-6-oxohexyl)-1H-1,2,3-triazol-4-yl)butanoyl)piperazin-1-yl)-2-methyl-6′-((tetrahydro-2H-pyran-4-yl)oxy)-[3,3′-bipyridin]-5-yl)-3-(trifluoromethyl)benzamide] | + (5% > RAF/E3 Dimerization) |

Now from value to molecule:

| RAF/E3 Dimerization | SMILES |
| --- | --- |
| + (5% > RAF/E3 Dimerization) | Cc1ncsc1-c1ccc([C@H](C)NC(=O)[C@@H]2C[C@@H](O)CN2C(=O)[C@H](NC(=O)CCOCCOCCOCCOCCNC(=O)c2cc(Oc3ccc(NC(=O)Nc4ccc(Cl)c(C(F)(F)F)c4)cc3)ccn2)C(C)(C)C)cc1 [Compound 1.015, 4-(4-(3-(4-chloro-3-(trifluoromethyl)phenyl)ureido)phenoxy)-N-(17-((2S,4R)-4-hydroxy-2-(((S)-1-(4-(4-methylthiazol-5-yl)phenyl)ethyl)carbamoyl)pyrrolidine-1-carbonyl)-18,18-dimethyl-15-oxo-3,6,9,12-tetraoxa-16-azanonadecyl)picolinamide] |
| + (5% > RAF/E3 Dimerization) | O=C1CCC(N2C(=O)c3cccc(CCCOCCNC(=O)c4cc(Oc5ccc(NC(=O)Nc6ccc(Cl)c(C(F)(F)F)c6)cc5)ccn4)c3C2=O)C(=O)N1 (stereo not drawn) [Compound 2.029, 4-(4-(3-(4-chloro-3-(trifluoromethyl)phenyl)ureido)phenoxy)-N-(2-(3-(2-(2,6-dioxopiperidin-3-yl)-1,3-dioxoisoindolin-4-yl)propoxy)ethyl)picolinamide] |
| ++ (25% > RAF/E3 Dimerization ≥ 5%) | O=C1CCC(N2C(=O)c3cccc(NC(=O)CCCCCn4cc(CCNC(=O)c5cc(Oc6ccc(NC(=O)Nc7ccc(Cl)c(C(F)(F)F)c7)cc6)ccn5)nn4)c3C2=O)C(=O)N1 (stereo not drawn) [Compound 2.025, 4-(4-(3-(4-chloro-3-(trifluoromethyl)phenyl)ureido)phenoxy)-N-(2-(1-(6-((2-(2,6-dioxopiperidin-3-yl)-1,3-dioxoisoindolin-4-yl)amino)-6-oxohexyl)-1H-1,2,3-triazol-4-yl)ethyl)picolinamide] |
| ++ (25% > RAF/E3 Dimerization ≥ 5%) | O=C1CCC(N2C(=O)c3cccc(NC(=O)CCCCCn4cc(COCCOCCOCCNC(=O)c5cc(Oc6ccc(NC(=O)Nc7ccc(Cl)c(C(F)(F)F)c7)cc6)ccn5)nn4)c3C2=O)C(=O)N1 (stereo not drawn) [Compound 2.027, 4-(4-(3-(4-chloro-3-(trifluoromethyl)phenyl)ureido)phenoxy)-N-(2-(2-(2-((1-(6-((2-(2,6-dioxopiperidin-3-yl)-1,3-dioxoisoindolin-4-yl)amino)-6-oxohexyl)-1H-1,2,3-triazol-4-yl)methoxy)ethoxy)ethoxy)ethyl)picolinamide] |
| ++ (25% > RAF/E3 Dimerization ≥ 5%) | O=C1CCC(N2C(=O)c3cccc(CCCOCCOCCNC(=O)c4cc(Oc5ccc(NC(=O)Nc6ccc(Cl)c(C(F)(F)F)c6)cc5)ccn4)c3C2=O)C(=O)N1 (stereo not drawn) [Compound 2.030, 4-(4-(3-(4-chloro-3-(trifluoromethyl)phenyl)ureido)phenoxy)-N-(2-(2-(3-(2-(2,6-dioxopiperidin-3-yl)-1,3-dioxoisoindolin-4-yl)propoxy)ethoxy)ethyl)picolinamide] |
